Structures are written as SMILES. “And” between values parts separate entries of the source, which are not always exact repeats. Identical values can stand only once. Marks after values point to notes of the source that are not given here. Bridge positions count the residues as written; N and C are the ends. Square brackets hold non-standard residues; d marks the D form. Peptide text beside a SMILES is read from it. Trp(1-Me) = Cn1cc(C[C@H](N)C(=O)O)c2ccccc21

Results on four compounds are retold here after patent publication US9512180B2, “Compstatin analogs” (THE REGENTS OF THE UNIVERSITY OF CALIFORNIA, priority 2012, dated 2016).

For data set [1], the system named is complement alternative pathway (AP). As to the kind of experiment: Hemolytic assay (rabbit erythrocyte lysis in human serum). Format: cell-based. To be noted: for IC50: Table 9, means from three independent experiments, read-out: IC50, Hemolytic assay. The procedure:
Inhibition of complement was also measured via lysis of erythrocytes. Rabbit erythrocytes (Complement Technology Inc., Tyler, Tex., USA) were washed in PBS and resuspended in veronal-buffered saline with 5 mM MgCl2 and 10 mM EGTA (VBS-MgEGTA). Peptide and serum dilutions were prepared as described above, and 1×10^7 erythrocytes were added to each serum/peptide mixture. Erythrocytes diluted in sterile deionized water and in VBS-MgEGTA were used as positive and negative controls for lysis, respectively. Plates were incubated for 20 minutes at 37° C., and centrifuged at 2500×g for 10 minutes.
In all assays, MgEGTA was used to chelate Ca′ ions required for classical/lectin pathway complement activation, while providing Mg′ necessary for AP activation. ELISAs allow for direct detection of C3b and C5b-9 formed during AP activation, while erythrocyte lysis assays provide a functional assessment of AP-mediated hemolysis in serum.

For the next data set, the system named is Human fetal RPE cells. Put plainly: RPE cell-based assay: confocal analysis of deposit-associated C5b-9 (normalized to ApoE). To be noted: peptide 1 μM; for deposit-associated C5b-9 (C5b-9/ApoE) relative to positive control: ~24 hrs, mean±S.E.M., RPE cultures of three donors; for Confocal Imaging % of positive control: deposit-associated C5b-9 normalized to ApoE, Mean (S.E.M.). Here is the method:
(§1) The in vitro drusen biogenesis model was employed. Human fetal RPE cells (Advanced Bioscience Resources, Alameda, Calif.) were cultured on Millipore HA porous supports (Millipore, Cat # PIHA 01250) in Miller medium (Maminishkis et al., 2006) supplemented with 5% fetal calf serum (FCS). Cultures derived from three different donor eyes were employed. Cells were rinsed with warm, sterile PBS and the insert membrane was excised with a scalpel and cut into small (˜4 mm^2) pieces which were placed in wells of a 96-well plate. To minimize effects of inter-culture variability, samples prepared from a single membrane were utilized for each experiment. The samples were rinsed in PBS and then exposed individually to the library of compstatin family peptides at 1 μM in FCS-free Miller medium containing 10% human complement serum (Innovative Research, Cat # IPLA-CSER AB, Lot # L12402). In preliminary experiments, compstatin family Peptides I, III, VI, VII, VIII, IX, and Parent (Table 7), were tested in the RPE cell assay at 100 μM and titrated by C5b-9 ELISA over a concentration range of 0.04-130 μM. […] Also from this assessment, Peptide VI, as well as Peptides I and III, were selected for further studies. Peptides I and III were chosen for comparative studies to Peptide VI, because they contain an arginine residue at position 1. The goal was to determine whether peptides containing arginine at position −1 (Peptide VI) or at position 1 (Peptides I and III) were potent complement inhibitors using the RPE cell assay and had improved aqueous solubility compared to previously known potent analogs. Negative control cells were exposed to Miller medium+5% FCS; positive control cells were exposed to Miller medium+10% human complement serum without inhibitory peptides. Experimental and control medium/inhibitor solutions were pre-mixed on a rocker at room temperature for 30 min, then warmed to 37° C., prior to placement on the samples and incubation for ˜24 hrs at 37° C. in a 7.0% CO2 incubator. Following the incubation period, the medium was removed and stored frozen prior to ELISA analysis. The cell/membrane samples were rinsed in PBS, fixed in cold 4% paraformaldehyde (PFA) in PBS for 20 min, and stored in 0.4% PFA until use in immunohistochemical assays.
Fixed samples were rinsed several times in PBS, embedded in 10% agarose (Type XI, Sigma-Aldrich, Cat # A3038) and sectioned at 100 μm on a vibratome. Sections were blocked with normal donkey serum ( 1/20 in PBT: PBS containing 0.5% bovine serum albumin and 0.1% Triton X-100) overnight at 4° C. The sections were then co-incubated in two primary antibodies (polyclonal goat anti-ApoE, Millipore Cat # AB947; 1/1000 in PBT, and mouse monoclonal anti-05b-9 aEll, Dako Cat # M0777; 1/200 in PBT) overnight at 4° C., then rinsed in PBT and co-incubated in secondary antibodies (Alexa Fluor 546-conjugated donkey anti-goat IgG and Alexa Fluor 488-conjugated donkey anti-mouse IgG, both 1/200 in PBT; Life Technologies Cat # A-11056 and # A-21202) overnight at 4° C. Sections were rinsed in PBT, stained with Hoechst 33342 (Life Technologies Cat # H3570), and mounted on slides with Prolong Gold (Life Technologies Cat # P36930).
Samples were imaged on an Olympus FV1000 confocal laser scanning microscope. A total of 154 single-plane images were acquired at a resolution of 1024×768 pixels and the digital image files were saved in 24-bit tiff format. Digital image analysis was performed with MetaMorph software (Molecular Devices, Sunnyvale, Calif.). For the analysis, a standard measurement region, which included both the RPE cell monolayer and all of the adjacent sub-cellular deposits, was applied to each image. The Set Threshold Color Tool was utilized to analyze each color channel separately; the threshold tool creates a boundary around the objects being measured (i.e., sub-cellular deposits) on the basis of color intensity. […]

The next data set concerns soluble C5b-9. As to the kind of experiment: Soluble C5b-9 ELISA of the RPE cell-based assay medium. On the set-up: species or system human. To be noted: peptide 1 μM; for soluble C5b-9 in assay medium relative to positive control: 10% human complement serum, ~24 hrs, mean±S.E.M., three donors; for Assay medium C5b-9 ELISA % of positive control: RPE cell assay medium, Mean (S.E.M.). Here is the method: as §1
Soluble C5b-9 ELISA of the RPE Cell-Based Assay Medium.
Experimental medium solutions were diluted 1/625 in assay diluent and quadruplicate ELISAs were performed using an OptEIA C5b-9 ELISA kit (BD Biosciences, Cat #558315). Plates were read at 450 nm, with absorbance at 570 nm subtracted for wavelength correction, on a BioRad Benchmark plate reader. C5b-9 concentrations were calculated using a standard curve generated using purified human C5b-9. Data was expressed as a percentage relative to the positive (human serum only) control. Means and standard errors for data from the three RPE donor cells were calculated and graphed using SigmaPlot 11.0 (Systat Software, San Jose, Calif.), and one-way ANOVA was calculated using Tukey's test for multiple comparisons.
In general terms: An ELISA detects its analyte on a solid surface through an enzyme-linked reagent.

The nature of data set [2]: Aqueous solubility by concentration measurement (absorbance at 280 nm) of saturated peptide solutions. Type of data set: physicochemical. Here is the method: The relative lipophilicities of Peptides I, III, VI, IX, and Parent are inversely consistent with solubilities as determined via concentration measurement (absorbance at 280 nm) of saturated peptide solutions, with Peptides I, III, and Parent having approximate aqueous solubilities of >1 mM, Peptide VI>500 μM, and Peptide IX<500 μM.

The test system of another data set is complement system. Put plainly: Preliminary ELISA-based complement system inhibition assays, human serum. Type of data set: biochemical. The note with it: preliminary data. From the text:
For some of the peptides studied here, W1, W13, R1, and S-1S0, there is experimental evidence for inhibitory activity against hC3. […] The structural rationale was that the positively charged backbone amino group was disrupting the hydrophobic cluster at the termini (spanning residues 11-C2-V3-V4/C12/T13 of native compstatin), which was deemed necessary for binding and activity before the availability of the structure of the C3c-W4A9 complex, and that upon removal of the positive charge by acetylation the hydrophobic cluster was fortified and contributed to the 3-fold increase in activity. […] The peptide with the diserine extension is expected to be active, as the diserine was present at the N-terminus of the original 32-amino acid peptide that was identified in the phage-display and a subsequent study.

On to `CC[C@H](C)[C@H](N)C(=O)N[C@H]1CSSC[C@@H](C(=O)N[C@H](C(N)=O)[C@@H](C)O)NC(=O)[C@H](CCCN=C(N)N)NC(=O)[C@H](Cc2cnc[nH]2)NC(=O)[C@H](Cc2cnc[nH]2)NC(=O)CNC(=O)[C@H](Cc2c[nH]c3ccccc23)NC(=O)[C@H](CC(=O)O)NC(=O)[C@H](CCC(N)=O)NC(=O)[C@H](C(C)C)NC(=O)[C@H](C(C)C)NC1=O` [Parent, ICV VQDWGH HRCT-NH2, reference compound], for which the IC50 – broadly, the midpoint of a concentration-inhibition curve – in data set [1] stood at 12900 nM. Moreover, the “difference in inhibition to other peptides” value in data set [1] (hemolysis, versus Peptides I, III, VI, IX) was 4- to 6 fold. Further, the “deposit-associated C5b-9 (C5b-9/ApoE) relative to positive control” value in the data set with Human fetal RPE cells (10% human complement serum) was 83.2±5.9%. In addition, in the data set on Human fetal RPE cells, the “Confocal Imaging % of positive control” value is 83.19 (5.92) % of positive control. In the data set on soluble C5b-9, the “soluble C5b-9 in assay medium relative to positive control” value was determined as 88.5±0.76% and the “Assay medium C5b-9 ELISA % of positive control” value (“Assay medium C5b-9 ELISA %” for short) was 88.49 (0.76) % of positive control.

As to `CC[C@H](C)[C@H](NC(=O)[C@H](CO)NC(=O)[C@H](CCCNC(=N)N)NC(C)=O)C(=O)N[C@H]1CSSC[C@@H](C(=O)N[C@H](C(N)=O)[C@@H](C)O)NC(=O)[C@H](CCCNC(=N)N)NC(=O)[C@H](Cc2c[nH]cn2)NC(=O)[C@H](C)NC(=O)CNC(=O)[C@H](Cc2c[nH]c3ccccc23)NC(=O)[C@H](CC(=O)O)NC(=O)[C@H](CCC(N)=O)NC(=O)[C@H](Cc2cn(C)c3ccccc23)NC(=O)[C@H](C(C)C)NC1=O` [Peptide VI, Ac-RS-ICV meWQDWGA HRCT-NH2], the IC50 in data set [1] worked out at 2230 nM. Moreover, the “Deposit-associated C5b9 (green channel) immunofluorescence, Integrated Area” value in the data set on Human fetal RPE cells (RPE 020207, 10% human complement serum, one value per image) is 86318 pixels and 70370 pixels and 77727 pixels and 91254 pixels and 59969 pixels. In addition, the “deposit-associated C5b-9 (C5b-9/ApoE) relative to positive control” value in the data set with Human fetal RPE cells (10% human complement serum) is recorded as 14.9±5.6%. Besides, in the data set on Human fetal RPE cells, the “Confocal Imaging % of positive control” value is on record as 14.85 (5.61) % of positive control. Also, in the data set on soluble C5b-9, the “soluble C5b-9 in assay medium relative to positive control” value is 44.6±3.2% and the “Assay medium C5b-9 ELISA %” value was 44.60 (3.16) % of positive control. Further, the solubility (as a rule, the concentration that dissolves in the medium under given conditions) in data set [2] was more than 500 µM.

With `CC(=O)N[C@@H](CCCNC(=N)N)C(=O)N[C@H]1CSSC[C@@H](C(=O)N[C@H](C(N)=O)[C@@H](C)O)NC(=O)[C@H](CCCNC(=N)N)NC(=O)[C@H](Cc2c[nH]cn2)NC(=O)[C@H](C)NC(=O)CNC(=O)[C@H](Cc2c[nH]c3ccccc23)NC(=O)[C@H](CC(=O)O)NC(=O)[C@H](CCC(N)=O)NC(=O)[C@H](Cc2cn(C)c3ccccc23)NC(=O)[C@H](C(C)C)NC1=O` [Peptide III, Ac- RCV meWQDWGA HRCT-NH2] (Ac-RCV[Trp(1-Me)]QDWGAHRCT-NH2; disulfide 2-12), in data set [1], the IC50 is 2250 nM. Further, in the data set on Human fetal RPE cells (10% human complement serum), the “deposit-associated C5b-9 (C5b-9/ApoE) relative to positive control” value was determined as 20.0±6.8%. Further, the “Confocal Imaging % of positive control” value in the data set on Human fetal RPE cells is listed as 19.98 (6.84) % of positive control. Also, in the data set with soluble C5b-9, the “soluble C5b-9 in assay medium relative to positive control” value came to 50.0±0.8% and the “Assay medium C5b-9 ELISA %” value is listed as 50.02 (0.82) % of positive control. The compound further registered a solubility in data set [2] of more than 1000 µM.

Take `CC(=O)N[C@@H](CCCNC(=N)N)C(=O)N[C@H]1CSSC[C@@H](C(=O)N[C@H](C(N)=O)[C@@H](C)O)NC(=O)[C@H](CCCNC(=N)N)NC(=O)[C@H](Cc2c[nH]cn2)NC(=O)[C@H](C)NC(=O)CNC(=O)[C@H](Cc2c[nH]c3ccccc23)NC(=O)[C@H](CC(=O)O)NC(=O)[C@H](CCC(N)=O)NC(=O)[C@H](Cc2c[nH]c3ccccc23)NC(=O)[C@H](C(C)C)NC1=O` [Peptide I, Ac- RCV WQDWGA HRCT-NH2] (Ac-RCVWQDWGAHRCT-NH2; disulfide 2-12): the IC50 in data set [1] was 3330 nM. Besides, the “deposit-associated C5b-9 (C5b-9/ApoE) relative to positive control” value with Human fetal RPE cells (10% human complement serum) is 55.3±12.3%. The “Confocal Imaging % of positive control” value in the data set on Human fetal RPE cells is on record as 55.27 (12.30)^a % of positive control. In addition, in the data set on soluble C5b-9, the “soluble C5b-9 in assay medium relative to positive control” value amounted to 61.4±2.3% and the “Assay medium C5b-9 ELISA %” value is 61.37 (2.34)^a % of positive control. The solubility in data set [2] is more than 1000 µM. In addition, the “inhibitory activity in human serum (in words)” value in the data set on complement system is “higher than those of native compstatin and slightly lower than those of the W4A9 analog”.
